Measurements: ChEMBL document CHEMBL1201862, “PubChem BioAssay data set” (2004)
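A five-concentration, 48-hour dose response in 96-well plates underlies each endpoint, interpolated linearly between surrounding concentrations. At the GI50, growth is halved.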 Calls of active or inactive are those of the source. Rule as the data show it: active = GI50 up to about 1.1 µM and inactive = higher.

Key:
Test in all cases: growth of human tumour cells (NCI), 48 h
SF-295 = test system: SF-295
SF-268 = test system: SF-268
Malme-3M = test system: Malme-3M
SK-MEL-28 = test system: SK-MEL-28
NCI-H226 = test system: NCI-H226
MDA-N = test system: MDA-N
HT-29 = test system: HT-29
TK-10 = test system: TK-10
A498 = test system: A498
HCT-116 = test system: HCT-116
SK-OV-3 = test system: SK-OV-3
RPMI-8226 = test system: RPMI-8226
CCRF-CEM = test system: CCRF-CEM
HCT-15 = test system: HCT-15
OVCAR-8 = test system: OVCAR-8
OVCAR-5 = test system: OVCAR-5
COLO 205 = test system: COLO 205
RXF 393 = test system: RXF 393
U-251 = test system: U-251
MCF7 = test system: MCF7

Row | SMILES | GI50 (SF-295) | GI50 (SF-268) | GI50 (Malme-3M) | GI50 (SK-MEL-28) | GI50 (NCI-H226) | GI50 (MDA-N) | GI50 (HT-29) | GI50 (TK-10) | GI50 (A498) | GI50 (HCT-116) | GI50 (SK-OV-3) | GI50 (RPMI-8226) | GI50 (CCRF-CEM) | GI50 (HCT-15) | GI50 (OVCAR-8) | GI50 (OVCAR-5) | GI50 (COLO 205) | GI50 (RXF 393) | GI50 (U-251) | GI50 (MCF7)
1 | O=C(O)c1cccc(SSc2cccc(C(=O)O)c2)c1 | > 100 µM (inactive) | > 100 µM (inactive) | > 100 µM (inactive) | > 100 µM (inactive) | > 100 µM (inactive) | > 100 µM (inactive) | > 100 µM (inactive) | > 100 µM (inactive) | > 100 µM (inactive) | > 100 µM (inactive) | > 100 µM (inactive) | > 100 µM (inactive) | 28.8 µM (inactive) | > 100 µM | > 100 µM (inactive) | > 100 µM (inactive) | > 100 µM (inactive) | > 100 µM (inactive) | > 100 µM (inactive) | –
2 | N#Cc1ccc(-c2nc3cc(Cl)ccc3[nH]2)cc1 | 44.6 µM (inactive) | – | – | – | 99.5 µM (inactive) | 49.1 µM (inactive) | 48.2 µM (inactive) | – | – | – | > 100 µM (inactive) | > 100 µM (inactive) | 41.2 µM (inactive) | 39.9 µM | 42.8 µM (inactive) | – | 74.8 µM (inactive) | > 100 µM (inactive) | 61.9 µM (inactive) | 63 µM (inactive)
3 | C#CC(O)/C=C/C(O)CCCC(O)CC#CC(O)C#CCCCCC(O)/C=C/CCCCCC(=O)CCCCCCCCCCCCCC(O)C(O)C#CC(=O)O (configuration not stated) | > 25 µM (inactive) | > 25 µM (inactive) | > 25 µM (inactive) | > 25 µM (inactive) | > 25 µM (inactive) | > 25 µM (inactive) | > 25 µM (inactive) | > 25 µM (inactive) | > 25 µM (inactive) | > 25 µM (inactive) | > 25 µM (inactive) | > 25 µM (inactive) | 6.81 µM (inactive) | > 25 µM | > 25 µM (inactive) | > 25 µM (inactive) | > 25 µM (inactive) | – | > 25 µM (inactive) | > 25 µM (inactive)
4 | COc1ccc(N2C(=O)C(=O)C3(CCCCC3)C2=O)c(OC)c1OC | > 100 µM (inactive) | > 100 µM (inactive) | > 100 µM (inactive) | > 100 µM (inactive) | > 100 µM (inactive) | > 100 µM (inactive) | > 100 µM (inactive) | > 100 µM (inactive) | – | > 100 µM (inactive) | > 100 µM (inactive) | > 100 µM (inactive) | > 100 µM (inactive) | > 100 µM | > 100 µM (inactive) | > 100 µM (inactive) | > 100 µM (inactive) | > 100 µM (inactive) | > 100 µM (inactive) | > 100 µM (inactive)
5 | OCC1CCCCCCCCCCC12SCCCS2 (configuration not stated) | – | > 100 µM (inactive) | > 100 µM (inactive) | > 100 µM (inactive) | > 100 µM (inactive) | > 100 µM (inactive) | > 100 µM (inactive) | > 100 µM (inactive) | – | > 100 µM (inactive) | > 100 µM (inactive) | > 100 µM (inactive) | > 100 µM (inactive) | > 100 µM | – | > 100 µM (inactive) | > 100 µM (inactive) | – | > 100 µM (inactive) | > 100 µM (inactive)
6 | O=C1CCCCC/C1=C\c1ccc(F)cc1 | > 100 µM (inactive) | > 100 µM (inactive) | > 100 µM (inactive) | > 100 µM (inactive) | > 100 µM (inactive) | > 100 µM (inactive) | > 100 µM (inactive) | 50.8 µM (inactive) | > 100 µM (inactive) | 89.3 µM (inactive) | > 100 µM (inactive) | 45.2 µM (inactive) | 24.4 µM (inactive) | > 100 µM | – | > 100 µM (inactive) | > 100 µM (inactive) | – | 98.6 µM (inactive) | –
7 | CCOC(=O)c1ccc(Nc2nc3cc(C(F)(F)F)ccc3nc2-c2ccccc2)cc1 | 26.7 µM (inactive) | > 100 µM (inactive) | > 100 µM (inactive) | > 100 µM (inactive) | > 100 µM (inactive) | > 100 µM (inactive) | > 10 µM (inactive) | > 10 µM (inactive) | – | 67.6 µM (inactive) | – | > 100 µM (inactive) | 43.3 µM (inactive) | > 100 µM | 31.3 µM (inactive) | 30.1 µM (inactive) | 42.7 µM (inactive) | 21.4 µM (inactive) | 21.9 µM (inactive) | 19.8 µM (inactive)
8 | COC1=C[C@]2(CCC(=O)O2)[C@@H]2Cc3ccccc3[C@H](O)[C@@H]2C1=O | > 100 µM (inactive) | 68.9 µM (inactive) | 24.5 µM (inactive) | > 100 µM (inactive) | 86.5 µM (inactive) | 15.8 µM (inactive) | > 100 µM (inactive) | > 100 µM (inactive) | > 100 µM (inactive) | 30.5 µM (inactive) | > 100 µM (inactive) | 18.1 µM (inactive) | 15.1 µM (inactive) | 41.1 µM | 38 µM (inactive) | > 100 µM (inactive) | > 100 µM (inactive) | – | 27.7 µM (inactive) | 44 µM (inactive)
9 | Cc1oc2ccccc2c(=O)c1Cn1nnc2ccccc21 | > 100 µM (inactive) | 34.3 µM (inactive) | > 100 µM (inactive) | 74 µM (inactive) | 53.1 µM (inactive) | 39.4 µM (inactive) | 91.8 µM (inactive) | > 100 µM (inactive) | 62.1 µM (inactive) | 59.7 µM (inactive) | > 100 µM (inactive) | 35.7 µM (inactive) | 95.1 µM (inactive) | 96.2 µM | 43.3 µM (inactive) | > 100 µM (inactive) | 42.9 µM (inactive) | – | > 100 µM (inactive) | 21.8 µM (inactive)
10 | COc1ccc(-n2sc3ncc([N+](=O)[O-])cc3c2=O)cc1 | > 100 µM (inactive) | > 100 µM (inactive) | > 100 µM (inactive) | > 100 µM (inactive) | > 100 µM (inactive) | > 100 µM (inactive) | > 100 µM (inactive) | > 100 µM (inactive) | – | > 100 µM (inactive) | > 100 µM (inactive) | > 100 µM (inactive) | 96.4 µM (inactive) | > 100 µM | > 100 µM (inactive) | > 100 µM (inactive) | > 100 µM (inactive) | – | > 100 µM (inactive) | > 100 µM (inactive)
11 | CCC(CON(C)c1ccccc1)(SC)SC | > 100 µM (inactive) | > 100 µM (inactive) | 13.5 µM (inactive) | > 100 µM (inactive) | > 100 µM (inactive) | > 100 µM (inactive) | > 100 µM (inactive) | > 100 µM (inactive) | – | > 100 µM (inactive) | > 100 µM (inactive) | > 100 µM (inactive) | > 100 µM (inactive) | > 100 µM | > 100 µM (inactive) | > 100 µM (inactive) | > 100 µM (inactive) | – | > 100 µM (inactive) | > 100 µM (inactive)
12 | O=c1oc2ccc3ccccc3c2cc1-c1nc2ccc([N+](=O)[O-])cc2o1 | 13.5 µM (inactive) | 20.5 µM (inactive) | 59.4 µM (inactive) | > 100 µM (inactive) | > 51.2 µM (inactive) | > 100 µM (inactive) | > 42.7 µM (inactive) | 28.3 µM (inactive) | 38.5 µM (inactive) | 48.6 µM (inactive) | > 30.4 µM (inactive) | > 51.1 µM (inactive) | 75.2 µM (inactive) | 69 µM | > 100 µM (inactive) | > 100 µM (inactive) | > 100 µM (inactive) | 4.72 µM (inactive) | 28.7 µM (inactive) | –
13 | O=C1CC2OCC=C3CN4CCC56c7ccccc7N1C5C2C3CC46O (configuration not stated) | > 100 µM (inactive) | > 100 µM (inactive) | > 100 µM (inactive) | > 100 µM (inactive) | > 100 µM (inactive) | > 100 µM (inactive) | > 100 µM (inactive) | > 100 µM (inactive) | 48.1 µM (inactive) | > 100 µM (inactive) | > 100 µM (inactive) | > 100 µM (inactive) | > 100 µM (inactive) | > 100 µM | > 100 µM (inactive) | > 100 µM (inactive) | > 100 µM (inactive) | – | > 100 µM (inactive) | > 100 µM (inactive)
14 | CCOC(=O)/C(C#N)=C(/NS(=O)(=O)c1cc(C)c(Cl)cc1[S-])[n+]1ccc(N(C)C)cc1 | > 100 µM (inactive) | > 100 µM (inactive) | > 100 µM (inactive) | > 100 µM (inactive) | > 100 µM (inactive) | – | > 100 µM (inactive) | > 100 µM (inactive) | > 100 µM (inactive) | > 100 µM (inactive) | > 100 µM (inactive) | > 100 µM (inactive) | > 100 µM (inactive) | > 100 µM | > 100 µM (inactive) | > 100 µM (inactive) | > 100 µM (inactive) | > 100 µM (inactive) | > 100 µM (inactive) | > 100 µM (inactive)
15 | O=C(c1ccccc1)c1ccc2[nH]c(-c3c(Cl)c(Cl)c(Cl)c(Cl)c3C(=O)N/N=C/c3ccccc3)nc2c1 | 22.4 µM (inactive) | 27.5 µM (inactive) | 26.1 µM (inactive) | 24 µM (inactive) | 19.9 µM (inactive) | 16.3 µM (inactive) | 30.8 µM (inactive) | 38.8 µM (inactive) | – | 32.1 µM (inactive) | 35.7 µM (inactive) | 23.4 µM (inactive) | 12.3 µM (inactive) | 23.2 µM | 32.2 µM (inactive) | 36.9 µM (inactive) | 17.5 µM (inactive) | 14.4 µM (inactive) | 35.8 µM (inactive) | 13.6 µM (inactive)
16 | [O-][S+](Nc1ccccc1)c1ccc(Cl)c(Cl)c1 (configuration not stated) | 24.2 µM (inactive) | 26.4 µM (inactive) | 56.6 µM (inactive) | > 100 µM (inactive) | 51.1 µM (inactive) | > 100 µM (inactive) | > 100 µM (inactive) | > 100 µM (inactive) | – | 33.1 µM (inactive) | – | 51.6 µM (inactive) | > 100 µM (inactive) | 57.3 µM | 66.4 µM (inactive) | – | 69.7 µM (inactive) | – | 15.9 µM (inactive) | 33.7 µM (inactive)
